Target: Neuraminidase (Influenza A virus (A/Puerto Rico/8/1934(H1N1)), UniProt P03468, H274Y)
Parameters: species or system Influenza A virus (A/California/04/2009(H1N1))

Structure (SMILES): CCC(CC)O[C@@H]1C=C(C(=O)O)C[C@H](NC(C)=O)[C@H]1NC(C)=O
- IC50: 1380 nM

From ChEMBL document CHEMBL4251557 (Eur J Med Chem, 2017)
